From patent US20230414607A1, “METHODS OF TREATMENT” (BOW RIVER LLC, priority 2017, published 2023)
Several values for one entry are separate records, joined by “and”; a condition that tells them apart may be missing. Identical values can stand only once. Like-named read-outs stand apart in the source and are kept apart here.

Columns and labels:
[1] = Example 1: pharmacokinetic study with posaconazole and lurasidone in obese subjects; assay type: in vivo, human
Description: Inventors studied 6 obese male and female subjects (ages 18-50, BMI>35) taking Posaconazole oral tablets (300 mg qd) and Lurasidone (20 mg qd). Body weights and BMI measurements for the 6 subjects are provided below in Table 1.
Subjects were dosed with Lurasidone alone on Day 1, then subsequently dosed to steady-state Posaconazole levels, with a loading dose of 300 mg twice a day on Day 2 and 300 mg once a day thereafter over a period of 14 days. Posaconazole administration was then stopped and Lurasidone (20 mg qd) administered 2, 4, and 6 days after administration had ceased (studies days 17, 19, and 21 respectively).

[2] = cited from earlier work
[3] = tested on: CYP3A; experiment: Example 2: lurasidone pharmacokinetics during and after posaconazole (drug-drug interaction); assay type: in vivo; details: human; for half-life: plasma, oral, read-out: Lurasidone elimination half-life, arithmetic mean ± S.E. (converted)
[4] = target: T1, CYP3A4 (Homo sapiens, UniProt P08684); details: in vivo
T1 sequence (P08684 whole entry): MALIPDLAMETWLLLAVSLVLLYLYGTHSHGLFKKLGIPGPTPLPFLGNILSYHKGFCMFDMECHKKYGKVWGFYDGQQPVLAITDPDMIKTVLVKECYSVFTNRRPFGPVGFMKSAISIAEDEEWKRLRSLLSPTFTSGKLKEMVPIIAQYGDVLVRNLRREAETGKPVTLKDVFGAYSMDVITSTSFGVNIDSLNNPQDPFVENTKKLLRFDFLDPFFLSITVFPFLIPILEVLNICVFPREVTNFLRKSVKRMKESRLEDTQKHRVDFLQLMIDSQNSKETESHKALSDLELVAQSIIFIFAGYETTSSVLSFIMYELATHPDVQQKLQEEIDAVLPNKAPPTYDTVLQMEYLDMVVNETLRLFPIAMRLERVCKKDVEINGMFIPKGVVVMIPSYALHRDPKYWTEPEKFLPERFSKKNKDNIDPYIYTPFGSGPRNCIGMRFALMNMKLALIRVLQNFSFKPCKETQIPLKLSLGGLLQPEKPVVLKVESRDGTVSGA
Excerpt: The reduced dose of the CYP3A4 substrate drug may be administered with posaconazole, the day after stopping posaconazole, or two or more days (e.g., as described herein) after stopping posaconazole.
To mitigate this risk, in some embodiments the administration of the CYP3A4 substrate drug is contraindicated not just for co-administration with posaconazole, but the administration is also contraindicated for a period of time (e.g., 2 or more days) after stopping posaconazole beyond the label-prescribed delay of one day (i.e., contraindication for co-administration of the CYP3A4 substrate drug and posaconazole). In some embodiments, the present methods provide for administering the CYP3A4 substrate drug as soon as it is safe to do so, e.g., for time periods exceeding about 1 day, as described herein. […] This accounts for the need to treat the patient with the CYP3A4 substrate drug with no more delay (after stopping posaconazole) than is necessary, so that the risks of leaving such a patient untreated are minimized as much as possible.

[5] = target: T1, CYP3A4; details: for predicted lurasidone AUC levels (reported as GMR) greater than baseline: human
Excerpt: Blood plasma levels may be described in various ways, such as area under the plasma concentration curve (AUC) and peak plasma concentration (Cmax). Baseline levels and posaconazole interaction levels for CYP3A4 substrate drugs may be compared using the geometric mean ratio (GMR) of AUC and Cmax. […] GMR is the standard industry and regulatory method for assessing the ratio of change of a pharmacokinetic variable (such as AUC) relative to its own baseline value (e.g., in a patient that was not treated with posaconazole). Once the level of substrate drug (AUC or Cmax) during co-administration with posaconazole and a CYP3A4 substrate drug is known, a function can be derived using conventional pharmacological methods to estimate how the AUC or plasma level of the CYP3A4 substrate drug is expected to decay over time after stopping administration of posaconazole. Such a function can be used to provide a plot of the decay GMR of AUC (or Cmax) of the CYP3A4 substrate drug versus time due to its interaction with posaconazole, based on the stated half-life of posaconazole.
The expected DDI decay curve can also be calculated for Cmax GMR by substituting Cmax during co-administration for AUC during co-administration in equation 1. As used herein, “expected levels” and “predicted levels” and the like, refer to the AUC or Cmax GMR values calculated using equation 1.

[6] = cited from earlier work; remark: listed apart in the source
[7] = target: T1, CYP3A4; details: in vivo; cited from earlier work
[8] = 2 days after stopping posaconazole

## O=C1[C@@H]2[C@H]3CC[C@H](C3)[C@@H]2C(=O)N1C[C@@H]1CCCC[C@H]1CN1CCN(c2nsc3ccccc23)CC1 [lurasidone]
[1]; Day 17, 2 days after Posaconazole was stopped, individual obese subjects
  Lurasidone AUC Ratio relative to Day 1: 2.98 and 1.78
[1]; both sexes, human, in vivo, 20 mg, Day 17, 2 days after Posaconazole was stopped, individual obese subjects
  AUC: 196 ng·h/mL
[1]; both, human, in vivo
  post-Posaconazole treatment mean AUC ratio values for Lurasidone: 3.6-4.3 ×
  post-Posaconazole treatment mean AUC ratios of Lurasidone, times higher than the baseline: about 3 times
[2]; 120 mg lurasidone in the fed state after a 350 kcal meal
  normal baseline AUC: mean AUC0-tau: about 743 ng*h/mL
[2]; 120 mg lurasidone in the fed state following a 350 kcal meal
  normal baseline Cmax: mean Cmax: about 160 ng/mL
[3]; in vivo, 20 mg
  Corrected Cmax, arithmetic mean ± standard error: 19.8 ± 4 ng/mL
[3]; in vivo, 20 mg, Corrected Cmax, arithmetic mean ± standard error
  Cmax: 17.1 ± 1.6 ng/mL
[3]; 20 mg, Normal, Day 1 (baseline)
  half-life: 9.4 h
[3]; 20 mg, Normal, Day 20 (posaconazole given Days 4-17)
  half-life: 39 ± 3 h
[3]; 20 mg, Normal, Day 23 (posaconazole given Days 4-17)
  half-life: 48 ± 5 h
[3]; 20 mg, Normal, Day 26 (posaconazole given Days 4-17)
  half-life: 50 ± 7 h
[3]; 20 mg, Normal, Day 30 (posaconazole given Days 4-17)
  half-life: 45 ± 9 h
[3]; 20 mg, Obese, Day 1 (baseline)
  half-life: 10.9 h
[3]; 20 mg, Obese, Day 20 (posaconazole given Days 4-17)
  half-life: 48 ± 4 h
[3]; 20 mg, Obese, Day 23 (posaconazole given Days 4-17)
  half-life: 52 ± 3 h
[3]; 20 mg, Obese, Day 26 (posaconazole given Days 4-17)
  half-life: 61 ± 4 h
[3]; 20 mg, Obese, Day 30 (posaconazole given Days 4-17)
  half-life: 71 ± 5 h
[3]; Normal, Day 14 (with posaconazole)
  half-life: 37 ± 4 h
[3]; Obese, Day 14 (with posaconazole)
  half-life: 38 ± 2 h
[4]; [8]
  actual AUC levels, fold greater than expected: about 2 fold
[4]; 3 days after stopping posaconazole
  actual AUC levels, fold greater than expected: 2-3 fold
[4]; 4 days after stopping posaconazole
  actual AUC levels, fold greater than expected: 2.5-3.5 fold
[5]
  day after stopping posaconazole on which predicted AUC reaches baseline: ~9 days
[5]; 1 day after stopping posaconazole
  predicted lurasidone AUC levels (reported as GMR) greater than baseline: about 400%
[5]; [8]
  predicted lurasidone AUC levels (reported as GMR) greater than baseline: about 300%
[6]; about 3 fold increase in GMR
  increase in the AUC of lurasidone associated with somnolence: about 300%
[6]; about 4 fold increase in GMR
  increase in AUC of lurasidone associated with akathisia: 400%

## COc1cc2c(cc1O)CCN[C@]21CS[C@@H]2c3c(OC(C)=O)c(C)c4c(c3[C@H](COC1=O)N1[C@@H]2[C@H]2c3c(cc(C)c(OC)c3O)C[C@@H]([C@@H]1O)N2C)OCO4 [trabectedin]
[7]
  AUC co-administration levels, Fold change: 1.66 fold
  AUC co-administration levels, Percent of baseline: 166%
  Cmax co-administration levels, Fold change: 1.22 fold
  Cmax co-administration levels, Percent of baseline: 122%
[2]; AUCinf one dose (24 hr infusion) at 600 ug/m^2
  Baseline AUC (% CV): 12 (±4.8) ng*h/mL
[2]; AUCinf one dose (24 hr infusion) at 900 ug/m^2
  Baseline AUC (% CV): 36 (±16) ng*h/mL
[2]; AUCinf one dose (24 hr infusion) at 1200 ug/m^2
  Baseline AUC (% CV): 32 (±13) ng*h/mL
[2]; AUCinf one dose (24 hr infusion) at 1500 ug/m^2
  Baseline AUC (% CV): 55 (±25) ng*h/mL
[2]; One dose (24 hr infusion) at 1500 ug/m^2
  Baseline Cmax (% CV): 1.8 (±1.1) ng/ml
